Data reported in US10392391B2 (Vertex Pharmaceuticals Incorporated, priority 2012, dated 2019).

The compounds below were run against ATR kinase (full-length ATR) (Homo sapiens (Human), UniProt Q13535) (assay: ATR inhibition assay (radioactive-phosphate incorporation)). Details: not given.
Type: biochemical
Procedure, shortened: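 Radiometric 33P incorporation by 5 nM full-length ATR into 800 μM target peptide with 10 μM [γ-33P]ATP, in 50 mM Tris/HCl pH 7.5, 10 mM MgCl2, 1 mM DTT, 7% DMSO, 25° C. Compound pre-incubated 10 minutes; reaction stopped after 24 hours, captured on phosphocellulose. Ki(app) from non-linear regression of initial rates.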

Sequence of ATR kinase (full-length ATR) (Q13535 whole entry): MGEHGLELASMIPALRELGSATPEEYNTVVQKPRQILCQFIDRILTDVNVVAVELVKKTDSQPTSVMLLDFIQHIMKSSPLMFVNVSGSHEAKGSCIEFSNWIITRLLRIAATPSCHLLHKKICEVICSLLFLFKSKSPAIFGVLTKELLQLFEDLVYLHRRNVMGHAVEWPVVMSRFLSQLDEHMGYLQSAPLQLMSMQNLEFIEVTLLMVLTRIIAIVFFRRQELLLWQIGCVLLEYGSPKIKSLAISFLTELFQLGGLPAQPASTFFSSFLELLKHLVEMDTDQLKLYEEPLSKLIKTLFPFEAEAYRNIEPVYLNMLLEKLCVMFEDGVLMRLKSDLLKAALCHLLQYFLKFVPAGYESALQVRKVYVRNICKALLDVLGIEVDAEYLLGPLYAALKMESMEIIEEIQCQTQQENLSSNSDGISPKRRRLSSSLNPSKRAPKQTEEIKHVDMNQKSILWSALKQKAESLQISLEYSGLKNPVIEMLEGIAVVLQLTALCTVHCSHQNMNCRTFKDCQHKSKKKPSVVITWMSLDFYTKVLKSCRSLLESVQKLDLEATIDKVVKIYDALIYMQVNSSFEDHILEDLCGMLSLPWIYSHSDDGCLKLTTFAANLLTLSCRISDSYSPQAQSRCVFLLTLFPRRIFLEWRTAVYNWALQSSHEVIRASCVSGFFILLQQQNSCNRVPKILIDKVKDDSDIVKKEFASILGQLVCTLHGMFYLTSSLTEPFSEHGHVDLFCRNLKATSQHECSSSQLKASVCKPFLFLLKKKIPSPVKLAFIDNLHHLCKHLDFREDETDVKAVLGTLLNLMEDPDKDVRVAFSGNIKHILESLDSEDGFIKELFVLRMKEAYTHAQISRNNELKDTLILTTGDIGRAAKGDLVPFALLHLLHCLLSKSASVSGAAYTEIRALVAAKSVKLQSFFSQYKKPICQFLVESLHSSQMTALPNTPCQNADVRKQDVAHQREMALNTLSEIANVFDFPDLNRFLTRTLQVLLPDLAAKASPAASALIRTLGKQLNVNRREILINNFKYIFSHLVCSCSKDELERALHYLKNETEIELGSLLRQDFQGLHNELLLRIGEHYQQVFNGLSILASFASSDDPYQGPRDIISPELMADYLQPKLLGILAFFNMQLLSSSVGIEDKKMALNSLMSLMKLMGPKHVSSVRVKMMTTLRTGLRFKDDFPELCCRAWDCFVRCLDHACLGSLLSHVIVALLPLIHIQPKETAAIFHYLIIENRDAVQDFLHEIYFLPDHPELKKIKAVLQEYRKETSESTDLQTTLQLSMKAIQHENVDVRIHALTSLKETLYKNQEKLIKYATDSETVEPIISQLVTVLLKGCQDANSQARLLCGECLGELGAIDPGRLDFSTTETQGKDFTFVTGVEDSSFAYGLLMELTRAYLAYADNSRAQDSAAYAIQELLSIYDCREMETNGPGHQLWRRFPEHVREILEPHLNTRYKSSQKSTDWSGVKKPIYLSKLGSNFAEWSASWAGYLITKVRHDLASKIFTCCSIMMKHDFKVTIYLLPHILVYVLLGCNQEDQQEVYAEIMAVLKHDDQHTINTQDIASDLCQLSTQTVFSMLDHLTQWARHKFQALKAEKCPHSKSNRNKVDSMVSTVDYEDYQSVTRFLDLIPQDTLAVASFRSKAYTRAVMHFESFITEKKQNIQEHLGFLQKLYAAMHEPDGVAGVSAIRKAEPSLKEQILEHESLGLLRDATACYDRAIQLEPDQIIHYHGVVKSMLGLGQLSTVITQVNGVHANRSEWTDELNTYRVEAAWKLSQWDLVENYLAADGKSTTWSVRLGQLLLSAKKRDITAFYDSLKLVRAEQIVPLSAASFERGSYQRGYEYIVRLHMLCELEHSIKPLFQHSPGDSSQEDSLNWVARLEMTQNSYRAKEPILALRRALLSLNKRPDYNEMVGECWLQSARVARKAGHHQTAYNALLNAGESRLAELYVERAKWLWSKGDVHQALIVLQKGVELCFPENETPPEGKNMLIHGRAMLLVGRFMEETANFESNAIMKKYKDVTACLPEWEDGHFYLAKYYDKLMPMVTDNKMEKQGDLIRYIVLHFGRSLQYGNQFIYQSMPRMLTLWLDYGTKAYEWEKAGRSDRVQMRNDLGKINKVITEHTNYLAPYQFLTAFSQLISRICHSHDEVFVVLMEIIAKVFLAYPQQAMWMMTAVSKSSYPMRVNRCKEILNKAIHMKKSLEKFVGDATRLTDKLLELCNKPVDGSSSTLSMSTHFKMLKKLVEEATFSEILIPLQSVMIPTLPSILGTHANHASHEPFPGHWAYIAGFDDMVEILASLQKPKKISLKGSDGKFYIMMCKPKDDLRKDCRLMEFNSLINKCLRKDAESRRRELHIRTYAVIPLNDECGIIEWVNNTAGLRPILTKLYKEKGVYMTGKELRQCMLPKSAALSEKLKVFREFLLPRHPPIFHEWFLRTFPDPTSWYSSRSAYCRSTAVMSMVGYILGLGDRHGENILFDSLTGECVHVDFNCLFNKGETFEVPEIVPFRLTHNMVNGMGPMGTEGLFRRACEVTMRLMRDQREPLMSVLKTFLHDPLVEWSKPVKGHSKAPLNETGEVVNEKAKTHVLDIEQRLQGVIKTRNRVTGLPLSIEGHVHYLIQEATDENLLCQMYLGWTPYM

Compound | Ki
Nc1nn2cc(F)cnc2c1C(=O)Nc1cnccc1N1CCCCCC1 [I-N-264, 2-amino-N-(4-(azepan-1-yl)pyridin-3-yl)-6-fluoropyrazolo[1,5-a]pyrimidine-3-carboxamide] | 1000 to 5000 nM

Same assay, conditions: Ki(app), 5 nM full-length ATR, 10 μM ATP, 25° C.

Compound | Ki
CN1CCN(c2c(Cl)cncc2NC(=O)c2c(N)nn3cc(F)cnc23)CC1 [I-N-85, 2-amino-N-(5-chloro-4-(4-methylpiperazin-1-yl)pyridin-3-yl)-6-fluoropyrazolo[1,5-a]pyrimidine-3-carboxamide] | 10 to 1000 nM
COCCN1CCN(c2ccncc2NC(=O)c2c(N)nn3cc(Cl)cnc23)CC1 [I-N-60, 2-amino-6-chloro-N-(4-(4-(2-methoxyethyl)piperazin-1-yl)pyridin-3-yl)pyrazolo[1,5-a]pyrimidine-3-carboxamide] | 10 to 1000 nM
Nc1nn2cc(Cl)cnc2c1C(=O)Nc1cnccc1N1CCC(N2CC[C@H](F)C2)CC1 [I-N-103, (S)-2-amino-6-chloro-N-(4-(4-(3-fluoropyrrolidin-1-yl)piperidin-1-yl)pyridin-3-yl)pyrazolo[1,5-a]pyrimidine-3-carboxamide] | 10 to 1000 nM
Nc1nn2cc(Cl)cnc2c1C(=O)Nc1cnccc1OC1CCNCC1 [I-O-80, 2-amino-6-chloro-N-(4-(piperidin-4-yloxy)pyridin-3-yl)pyrazolo[1,5-a]pyrimidine-3-carboxamide] | 10 to 1000 nM
CN1CCN(C2CCN(c3ccncc3NC(=O)c3c(N)nn4cc(Cl)cnc34)CC2)CC1 [I-N-97, 2-amino-6-chloro-N-(4-(4-(4-methylpiperazin-1-yl)piperidin-1-yl)pyridin-3-yl)pyrazolo[1,5-a]pyrimidine-3-carboxamide] | 10 to 1000 nM
CN1CCC[C@@H]1C(=O)N1CCN(c2ccncc2NC(=O)c2c(N)nn3cc(F)cnc23)CC1 [I-N-199, (R)-2-amino-6-fluoro-N-(4-(4-(1-methylpyrrolidine-2-carbonyl)piperazin-1-yl)pyridin-3-yl)pyrazolo[1,5-a]pyrimidine-3-carboxamide] | 10 to 1000 nM
N#CCc1cnc2c(C(=O)Nc3cnccc3N3CCOC(CN)C3)c(N)nn2c1 (stereo not drawn) [I-N-90, 2-amino-N-(4-(2-(aminomethyl)morpholino)pyridin-3-yl)-6-(cyanomethyl)pyrazolo[1,5-a]pyrimidine-3-carboxamide] | 10 to 1000 nM
Cc1nonc1N1CCN(c2ccncc2NC(=O)c2c(N)nn3cc(F)cnc23)CC1 [I-N-260, 2-amino-6-fluoro-N-(4-(4-(4-methyl-1,2,5-oxadiazol-3-yl)piperazin-1-yl)pyridin-3-yl)pyrazolo[1,5-a]pyrimidine-3-carboxamide] | 10 to 1000 nM
N#CCc1cnc2c(C(=O)Nc3cnccc3N3CCNCC3)c(N)nn2c1 [I-N-89, 2-amino-6-(cyanomethyl)-N-(4-(piperazin-1-yl)pyridin-3-yl)pyrazolo[1,5-a]pyrimidine-3-carboxamide] | 10 to 1000 nM
COc1ccc(-c2ccncc2NC(=O)c2c(N)nn3cc(F)cnc23)cn1 [I-C-27, 2-amino-6-fluoro-N-(6-methoxy-[3,4′-bipyridin]-3′-yl)pyrazolo[1,5-a]pyrimidine-3-carboxamide] | 10 to 1000 nM
Nc1nn2cc(F)cnc2c1C(=O)Nc1cncc(F)c1N1CCC(S(=O)(=O)N2CCOCC2)CC1 [I-N-155, 2-amino-6-fluoro-N-(5-fluoro-4-(4-(morpholinosulfonyl)piperidin-1-yl)pyridin-3-yl)pyrazolo[1,5-a]pyrimidine-3-carboxamide] | 10 to 1000 nM
CN(C)CCN1CCN(c2ccncc2NC(=O)c2c(N)nn3cc(Cl)cnc23)CC1 [I-N-49, 2-amino-6-chloro-N-(4-(4-(2-(dimethylamino)ethyl)piperazin-1-yl)pyridin-3-yl)pyrazolo[1,5-a]pyrimidine-3-carboxamide] | 10 to 1000 nM
CS(=O)(=O)C1CN(C(=O)C2CCN(c3c(F)cncc3NC(=O)c3c(N)nn4cc(F)cnc34)CC2)C1 [I-G-86, 2-amino-6-fluoro-N-(5-fluoro-4-(4-(3-(methylsulfonyl)azetidine-1-carbonyl)piperidin-1-yl)pyridin-3-yl)pyrazolo[1,5-a]pyrimidine-3-carboxamide] | 10 to 1000 nM
Nc1nn2cc(Cl)cnc2c1C(=O)Nc1cnccc1OC1CCOCC1 [I-O-61, 2-amino-6-chloro-N-(4-((tetrahydro-2H-pyran-4-yl)oxy)pyridin-3-yl)pyrazolo[1,5-a]pyrimidine-3-carboxamide] | 10 to 1000 nM
Nc1nn2cc(F)cnc2c1C(=O)Nc1cnccc1C1CCN(C(=O)C23CCN(CC2)CC3)CC1 [I-C-18, 2-amino-6-fluoro-N-(4-(1-(quinuclidine-4-carbonyl)piperidin-4-yl)pyridin-3-yl)pyrazolo[1,5-a]pyrimidine-3-carboxamide] | 10 to 1000 nM
Nc1nn2cc(F)cnc2c1C(=O)Nc1cnccc1N1CCC(S(=O)(=O)N2CCN3CCC2CC3)CC1 [I-N-196, N-(4-(4-(1,4-diazabicyclo[3.2.2]nonan-4-ylsulfonyl)piperidin-1-yl)pyridin-3-yl)-2-amino-6-fluoropyrazolo[1,5-a]pyrimidine-3-carboxamide] | 10 to 1000 nM
CC(C)(O)CN1CCN(c2c(F)cncc2NC(=O)c2c(N)nn3cc(F)cnc23)CC1 [I-N-139, 2-amino-6-fluoro-N-(5-fluoro-4-(4-(2-hydroxy-2-methylpropyl)piperazin-1-yl)pyridin-3-yl)pyrazolo[1,5-a]pyrimidine-3-carboxamide] | 10 to 1000 nM
CN1CCN(CC2CCN(c3c(F)cncc3NC(=O)c3c(N)nn4cc(F)cnc34)CC2)CC1 [I-N-150, 2-amino-6-fluoro-N-(5-fluoro-4-(4-((4-methylpiperazin-1-yl)methyl)piperidin-1-yl)pyridin-3-yl)pyrazolo[1,5-a]pyrimidine-3-carboxamide] | 10 to 1000 nM
CC(C)N1CCCC1C(=O)N1CCN(c2c(F)cncc2NC(=O)c2c(N)nn3cc(F)cnc23)CC1 (stereo not drawn) [I-N-205, 2-amino-6-fluoro-N-(5-fluoro-4-(4-(1-isopropylpyrrolidine-2-carbonyl)piperazin-1-yl)pyridin-3-yl)pyrazolo[1,5-a]pyrimidine-3-carboxamide] | 10 to 1000 nM
Cc1cnccc1-c1ccncc1NC(=O)c1c(N)nn2cc(F)cnc12 [I-C-29, 2-amino-6-fluoro-N-(3′-methyl-[4,4′-bipyridin]-3-yl)pyrazolo[1,5-a]pyrimidine-3-carboxamide] | 10 to 1000 nM
CN1CCOC[C@@H]1c1ccc(-c2ccncc2NC(=O)c2c(N)nn3cc(F)cnc23)cc1 [I-C-66, (S)-2-amino-6-fluoro-N-(4-(4-(4-methylmorpholin-3-yl)phenyl)pyridin-3-yl)pyrazolo[1,5-a]pyrimidine-3-carboxamide] | 10 to 1000 nM
CN1CCC(N(C)S(=O)(=O)C2CCN(c3c(F)cncc3NC(=O)c3c(N)nn4cc(F)cnc34)CC2)CC1 [I-N-148, 2-amino-6-fluoro-N-(5-fluoro-4-(4-(N-methyl-N-(1-methylpiperidin-4-yl)sulfamoyl)piperidin-1-yl)pyridin-3-yl)pyrazolo[1,5-a]pyrimidine-3-carboxamide] | 10 to 1000 nM
Cc1cncc(NC(=O)c2c(N)nn3cc(F)cnc23)c1N1CCC(C(=O)N2CCN(C)CC2)CC1 [I-G-55, 2-amino-6-fluoro-N-(5-methyl-4-(4-(4-methylpiperazine-1-carbonyl)piperidin-1-yl)pyridin-3-yl)pyrazolo[1,5-a]pyrimidine-3-carboxamide] | 10 to 1000 nM
